Reference: patent US20250134995A1, “SAPONIN-BASED ADJUVANTS AND METHODS OF CHARACTERIZING SAME” (priority 2023, published 2025)
Read-outs that look alike come from different tables or passages of the source.

Tests used:
[1] = in vitro, free QS-21; cited from earlier work
[2] = in vivo; cited from earlier work

Compound: CC(C)CCC[C@@H](C)[C@H]1CC[C@H]2[C@@H]3CC=C4C[C@@H](O)CC[C@]4(C)[C@H]3CC[C@]12C [cholesterol, cholesterol [1-2-3H (N)]]
- elimination (after 168 h): lack of complete elimination
- distribution to the iliac LN compared to inguinal LN and popliteal LN (after QF injection): substantial
- plateau of relative activity in intestines, lungs, and bone marrow (both, CD-1 IGS, mouse, in vivo): 5-20 % ID/g tissue
- plateau of relative radioactivity in plasma and kidney (both, CD-1 IGS, mouse, in vivo): 5%-20%
- start of plateau of relative activity in testes, ovaries and uterus (both, CD-1 IGS, mouse, in vivo): 24 h
- time at which systemic levels reached a plateau (both, CD-1 IGS, mouse, in vivo): around 24 h
- time from which cholesterol levels are significantly higher than saponin levels at the injection site (both, CD-1 IGS, mouse, in vivo): 3 to 6 h
- time to removal from the injection site (both, CD-1 IGS, mouse, in vivo): ≤ 48 h
- decline of counts at the injection site (compared to saponin counts): slower decline
- early relative radioactivity in plasma and kidney (early timepoints, in contrast to saponins): lower relative radioactivity
- activity in urine (mouse, in vivo): Barely detectable activity
- injected radioactive dose per gram tissue at the injection site and in the iliac LN (mouse, in vivo): high percentage
- plateauing activity in spleen, heart, and brain (mouse, in vivo): lower levels
- relative activity in the liver (mouse, in vivo): low levels
- relative activity in the liver versus saponins (mouse, in vivo): slightly higher relative activity
- reproductive organ with the highest relative activity (mouse, in vivo): highest relative activity of cholesterol detected in the ovaries

Compound: saponins
- effect of presence of SARS-COV-2 antigen on relative activity in urine and kidney (mouse, in vivo): increased relative activity
- excretion pathway (mouse, in vivo): rapidly excreted via the kidneys into urine
- injected radioactive dose per gram tissue at the injection site and in the iliac LN (mouse, in vivo): high percentage
- level in bone marrow after the peak (mouse, in vivo): declined
- level in the QF and the iliac LN (mouse, in vivo): low levels
- relative activity in plasma, urine, and kidney after the peak (mouse, in vivo): rapid decline
- relative activity in the liver (mouse, in vivo): low levels
- systemic accumulation (mouse, in vivo): do not accumulate systemically
- time of highest relative activity in testes, ovaries and uterus (mouse, in vivo): 1 h
- time of peak in bone marrow (mouse, in vivo): 3 h and 6 h
- time of peak relative activity in plasma, urine, and kidney (mouse, in vivo): 1 to 3 h
- time to near complete clearance (urine as major excretion pathway) (mouse, in vivo): ≤ 7 days
- time to removal from the injection site (mouse, in vivo): ≤ 48 h

Compound: QS-21
- hemolytic activity [1]: shows hemolytic activity
- pain at the injection site [2]: immediate pain at the injection site
